Entries after “also recorded” stand apart in the source; their conditions may differ.
Tests used:
Bmp4 in exECs = assay: Bmp4 expression by qPCR in exECs; assay type: cell-based, mouse; conditions: TC-G 1008 25 μM, 24 hours, compared with ZnSO4 100 μM
GPR39 = target: T1, GPR39 (Mus musculus, UniProt Q5U431); assay: Ca2+ live imaging of ECs with Fluo3-AM; assay type: cell-based; conditions: 20 mins post stimulation, AUC
T1 construct: endogenous in cells; host or cells: thymic endothelial cells (ECs / exECs)
T1 sequence (Q5U431 1-456): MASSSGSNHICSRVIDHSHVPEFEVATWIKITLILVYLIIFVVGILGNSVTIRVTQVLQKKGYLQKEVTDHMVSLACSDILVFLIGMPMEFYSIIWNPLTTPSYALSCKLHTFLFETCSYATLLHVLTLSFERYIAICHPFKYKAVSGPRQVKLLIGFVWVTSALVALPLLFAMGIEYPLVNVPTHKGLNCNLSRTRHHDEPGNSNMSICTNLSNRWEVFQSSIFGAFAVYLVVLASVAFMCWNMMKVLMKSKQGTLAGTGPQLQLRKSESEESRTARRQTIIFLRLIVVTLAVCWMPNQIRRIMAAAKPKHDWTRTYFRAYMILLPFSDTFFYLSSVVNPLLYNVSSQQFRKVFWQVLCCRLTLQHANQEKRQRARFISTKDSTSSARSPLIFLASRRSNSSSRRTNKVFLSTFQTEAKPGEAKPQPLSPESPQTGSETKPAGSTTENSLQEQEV
Description: FIGS. 20A-20D. […] (20D) GPR39 cell surface levels in thymocytes and TECs at d0. Graphs represent mean+/−SEM.

[1] = test system: Male C57BL/6 mice aged 2 mo, 12 mo or 19 mo; assay: Thymus cellularity in mice aged 2, 12 or 19 months; assay type: in vivo, mouse; conditions: TC-G 1008 20 mg/kg/day for 5 days, day 7, versus untreated controls
Method: FIG. 14. Male C57BL/6 mice aged 2 mo, 12 mo or 19 mo were given the GPR39 agonist TC-G 1008 (20 mg/kg/day) for 5 days. Thymus cellularity was measured at day 7.

[2] = test system: C57BL/6 mice given sublethal TBI; assay: Thymic regeneration after sublethal total body irradiation (SL-TBI, 550 cGy); assay type: in vivo, mouse; conditions: TC-G 1008 20 mg/mouse/day by guided feeding day 0 to day 10, 550 cGy TBI, day 10
Description: FIGS. 4A-4G. […] (4A, 4B) 6-8 week-old female C57BL/6 mice were fed a normal or ZD diet for 21 days at which point mice were given a sublethal dose of total body irradiation (TBI, 550 cGy). (4A) Total thymic cellularity at days 7 and 14 after TBI (n=10/treatment/timepoint across two independent experiments). (4B) Total number of CD45-EpCAM^+MHCII^+UEA1^loLy51^hi (cTECs) and CD45^− EpCAM^+MHCII^+UEA1^hi Ly51^lo (mTECs) at days 7 and 14 after TBI (n=10/treatment/timepoint across two independent experiments). (4C) 6-12 week-old female BALB.B mice were fed with normal or ZD diet for 21 days, at which point mice were given a lethal dose of TBI (900cGy) and 10×10^6 T cell-depleted bone marrow (BM) cells from 6-8 week-old C57BL/6. One cohort also received 2×10^6 T cells to induce graft versus host disease (GVHD); thymic cellularity was quantified on day 14 after allogeneic hematopoietic stem cell transplant (allo-HCT, n=5-6/group). (4D) 6-8 week-old female C57BL/6 mice were fed with normal or ZD diet for 21 days at which point mice were given 550 cGy TBI and total thymus cellularity quantified on day 14. […] (4E) Total thymic cellularity. (4F) Total number of cTECs and mTECs. (4G) Total number of Ki-67+ thymic endothelial cells (TECs). […]

[3] = test system: mice given lethal TBI and T cell depleted BM (allo-HCT); assay: Thymic reconstitution after T cell-depleted allogeneic HCT; assay type: in vivo; conditions: BALB.B recipients, 900 cGy, TC-G 1008 20 mg/mouse/day day 0-8, 10 and 12, day 14

Compound: CNc1nc(NCc2ccc(NS(C)(=O)=O)cc2Cl)cc(-c2ccccn2)n1 [TC-G 1008, N-[3-chloro-4-[[[2-(methylamino)-6-pyridin-2-ylpyrimidin-4-yl]amino]methyl]phenyl]methanesulfonamide]
- Bmp4 expression (Bmp4 in exECs): induced expression of Bmp4, greater than Zn alone; also recorded: induces expression of BMP4
- Ca2+ influx (GPR39): incudes Ca2+ influx
- thymus cellularity [1]: significantly improved thymus cellularity
- thymic function (thymus cellularity) [2]: significantly improved thymic function
- thymic function [3]: significantly improved thymic function

— patent US20230263800A1, “COMPOSITIONS AND METHODS TO PROMOTE THYMIC FUNCTION” (Fred Hutchinson Cancer Center, priority 2020, published 2023)
